Structures can show the parent of a compound that is named as a salt.
Key:
Settings in all cases: 72 h
U2OS [1] = assay: cell viability relative to DMSO; higher = less toxic
Calu-3 [2] = assay: as above
Caco-2 [3] = assay: as above
Vero E6 [4] = assay: as above
HepG2 [5] = assay: as above
U2OS [6] = assay: relative viability EC50 (midpoint between 100% and the lowest measured viability); higher = less toxic
Calu-3 [7] = assay: as above
Caco-2 [8] = assay: as above
Vero E6 [9] = assay: as above
HepG2 [10] = assay: as above
U2OS [11] = assay: drug sensitivity score (DSS) for viability; higher = more toxic; extreme values may be limits of the assay
Calu-3 [12] = assay: as above
Caco-2 [13] = assay: as above
Vero E6 [14] = assay: as above
HepG2 [15] = assay: as above

SMILES | cell viability (U2OS [1]; 1 nM) [%] | cell viability (U2OS [1]; 10 nM) [%] | cell viability (U2OS [1]; 100 nM) [%] | cell viability (U2OS [1]; 1000 nM) [%] | cell viability (U2OS [1]; 10000 nM) [%] | cell viability (Calu-3 [2]; 1 nM) [%] | cell viability (Calu-3 [2]; 10 nM) [%] | cell viability (Calu-3 [2]; 100 nM) [%] | cell viability (Calu-3 [2]; 1000 nM) [%] | cell viability (Calu-3 [2]; 10000 nM) [%] | cell viability (Caco-2 [3]; 1 nM) [%] | cell viability (Caco-2 [3]; 10 nM) [%] | cell viability (Caco-2 [3]; 100 nM) [%] | cell viability (Caco-2 [3]; 1000 nM) [%] | cell viability (Caco-2 [3]; 10000 nM) [%] | cell viability (Vero E6 [4]; 1 nM) [%] | cell viability (Vero E6 [4]; 10 nM) [%] | cell viability (Vero E6 [4]; 100 nM) [%] | cell viability (Vero E6 [4]; 1000 nM) [%] | cell viability (Vero E6 [4]; 10000 nM) [%] | cell viability (HepG2 [5]; 1 nM) [%] | cell viability (HepG2 [5]; 10 nM) [%] | cell viability (HepG2 [5]; 100 nM) [%] | cell viability (HepG2 [5]; 1000 nM) [%] | cell viability (HepG2 [5]; 10000 nM) [%] | relative viability EC50 (U2OS [6]) [µM] | relative viability EC50 (Calu-3 [7]) [µM] | relative viability EC50 (Caco-2 [8]) [µM] | relative viability EC50 (Vero E6 [9]) [µM] | relative viability EC50 (HepG2 [10]) [µM] | drug sensitivity score (U2OS [11]) | drug sensitivity score (Calu-3 [12]) | drug sensitivity score (Caco-2 [13]) | drug sensitivity score (Vero E6 [14]) | drug sensitivity score (HepG2 [15])
CN(C(=O)Cc1ccccc1)[C@H](CN1CCCC1)c1ccccc1 [N-MPPP] | 95 | 95.8 | 101 | 102 | 99.1 | 103 | 96.2 | 91.6 | 106 | 93.4 | 111 | 94.8 | 102 | 97.4 | 95.9 | 105 | 104 | 102 | 106 | 99.5 | 93.5 | 93.6 | 97.8 | 100 | 98 | > 10 | > 10 | > 10 | > 10 | > 10 | 0 | 0 | 0 | 0 | 0
CC[C@@H](C)N(C)C(=O)c1cc2ccccc2c(-c2ccccc2Cl)n1 | 102 | 98.3 | 102 | 97.3 | 103 | 108 | 106 | 93.8 | 95.8 | 99.2 | 106 | 104 | 95.6 | 96.4 | 98.6 | 99.4 | 105 | 100 | 102 | 107 | 92.5 | 113 | 89.6 | 100 | 107 | > 10 | > 10 | > 10 | > 10 | > 10 | 0 | 0 | 0 | 0 | 0
O=C1CC[C@@]2(O)[C@H]3Cc4ccc(O)c5c4[C@@]2(CCN3CC2CC2)[C@H]1O5 [NALTREXONE HYDROCHLORIDE] | 102 | 97.2 | 99.8 | 100 | 101 | 97.3 | 100 | 101 | 99.2 | 99 | 107 | 99 | 95.3 | 99.1 | 90 | 98.1 | 106 | 100 | 103 | 103 | 93.8 | 110 | 102 | 95.1 | 92.1 | > 10 | > 10 | > 10 | > 10 | > 10 | 0 | 0 | 0 | 0 | 0

Source: the supplement of paper PMC13380429
